Results taken from ChEMBL document CHEMBL1201862, “PubChem BioAssay data set” (2004).
Activity calls are given as the source filed them.

Experiments:
[1] = biological target: T1, Sentrin-specific protease 8 (Homo sapiens, UniProt Q96LD8); type: functional
T1 sequence (Q96LD8 whole entry): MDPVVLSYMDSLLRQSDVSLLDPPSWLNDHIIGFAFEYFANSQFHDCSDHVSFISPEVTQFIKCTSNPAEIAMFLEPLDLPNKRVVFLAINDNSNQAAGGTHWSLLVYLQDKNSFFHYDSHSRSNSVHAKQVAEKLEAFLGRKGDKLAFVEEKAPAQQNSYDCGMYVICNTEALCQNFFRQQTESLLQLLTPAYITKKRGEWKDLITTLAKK

[2] = biological target: T1, Sentrin-specific protease 8; type: functional; remark: listed apart in the source
[3] = miR-122 activators in hepatoma reporter cells, dose response, cell-based, Huh7 psiCHECK-miR122, Renilla luciferase, cherry-picked (AID 651956); type: functional;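 further: huh7 hepatoma cells stably carrying a psiCHECK-2 miR-122 sensor plasmid; renilla luciferase signal reporting endogenous miR-122 activity after 48 h compound exposure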
[4] = cytotoxicity toward NIH3T3 fibroblasts, dose response, counter-screen, cell-based, ATP luminescence, mouse fibroblasts (AID 2010); type: functional;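 further: cells exposed to compound for about 90 hours before reading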
[5] = Vero E6 cell cytotoxicity, dose response, cytotoxicity control for non-replicating M. tuberculosis project, secondary assay (AID 492998); type: functional, VeroE6; conditions: Vero C1008
[6] = MDA-MB-231 cell growth inhibition, dose response, cytotoxicity control for RAD54 inhibitor project, CellTiter-Glo luminescence, cherry-pick (AID 651692); type: functional, cell-based
[7] = biological target: T2, Short transient receptor potential channel 4 (Mus musculus, UniProt Q9QUQ5); assay: mouse TRPC4 channel activators, dose response, cell-based, HEK293 TRPC4/mu-opioid, Fluo-4 calcium (AID 434937); type: functional
T2 sequence (Q9QUQ5 whole entry): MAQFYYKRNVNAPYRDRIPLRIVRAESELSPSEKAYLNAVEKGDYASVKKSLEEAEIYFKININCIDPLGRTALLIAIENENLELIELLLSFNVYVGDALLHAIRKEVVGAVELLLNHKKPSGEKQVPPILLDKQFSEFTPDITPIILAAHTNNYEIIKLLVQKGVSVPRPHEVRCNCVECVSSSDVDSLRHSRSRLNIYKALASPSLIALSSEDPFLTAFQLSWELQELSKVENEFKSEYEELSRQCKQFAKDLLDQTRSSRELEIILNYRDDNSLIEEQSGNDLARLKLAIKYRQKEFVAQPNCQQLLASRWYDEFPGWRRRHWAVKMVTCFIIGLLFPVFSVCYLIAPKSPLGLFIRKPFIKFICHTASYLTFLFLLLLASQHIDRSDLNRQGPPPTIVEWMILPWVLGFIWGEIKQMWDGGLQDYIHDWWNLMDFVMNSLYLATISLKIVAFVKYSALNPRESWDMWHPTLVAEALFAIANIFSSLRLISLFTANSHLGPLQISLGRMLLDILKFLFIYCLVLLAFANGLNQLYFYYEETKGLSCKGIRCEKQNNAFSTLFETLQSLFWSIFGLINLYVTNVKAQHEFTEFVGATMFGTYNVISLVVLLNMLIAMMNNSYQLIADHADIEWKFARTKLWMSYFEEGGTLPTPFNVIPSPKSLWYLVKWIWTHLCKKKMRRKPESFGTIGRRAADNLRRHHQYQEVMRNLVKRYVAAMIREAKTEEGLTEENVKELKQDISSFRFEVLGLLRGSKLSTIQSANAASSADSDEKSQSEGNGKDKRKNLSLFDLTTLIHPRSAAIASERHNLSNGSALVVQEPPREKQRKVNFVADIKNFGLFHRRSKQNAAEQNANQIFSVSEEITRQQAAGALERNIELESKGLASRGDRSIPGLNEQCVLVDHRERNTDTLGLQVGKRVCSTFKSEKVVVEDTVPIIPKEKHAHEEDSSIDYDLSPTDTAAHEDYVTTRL

[8] = biological target: T3, Rac GTPase-activating protein 1 (Homo sapiens, UniProt Q9H0H5); assay: MgcRacGAP GTPase-activating activity inhibitors, confirmation, biochemical, ADP Hunter fluorescence, primary and confirmatory (AID 624330); type: functional
T3 sequence (Q9H0H5 whole entry): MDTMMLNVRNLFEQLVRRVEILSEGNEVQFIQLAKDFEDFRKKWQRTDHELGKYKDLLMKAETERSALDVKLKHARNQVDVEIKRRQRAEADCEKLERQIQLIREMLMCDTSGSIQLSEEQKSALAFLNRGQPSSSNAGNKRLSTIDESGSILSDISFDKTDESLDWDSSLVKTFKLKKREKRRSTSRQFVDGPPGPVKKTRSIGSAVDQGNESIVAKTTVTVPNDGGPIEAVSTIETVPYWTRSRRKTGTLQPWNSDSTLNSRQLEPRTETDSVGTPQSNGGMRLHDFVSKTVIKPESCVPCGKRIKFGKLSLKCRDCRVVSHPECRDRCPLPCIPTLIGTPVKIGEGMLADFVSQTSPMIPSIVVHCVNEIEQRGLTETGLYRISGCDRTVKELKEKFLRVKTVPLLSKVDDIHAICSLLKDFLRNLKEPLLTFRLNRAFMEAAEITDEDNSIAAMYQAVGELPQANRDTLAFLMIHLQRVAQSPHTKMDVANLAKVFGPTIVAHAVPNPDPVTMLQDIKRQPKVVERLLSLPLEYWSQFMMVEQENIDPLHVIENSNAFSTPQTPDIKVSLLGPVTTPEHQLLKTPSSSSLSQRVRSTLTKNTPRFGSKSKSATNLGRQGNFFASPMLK

[9] = THP-1 cell cytotoxicity, dose response, cytotoxicity control for non-replicating M. tuberculosis project (AID 489025); type: functional
[10] = biological target: T4, DNA repair protein RAD52 homolog (Homo sapiens, UniProt P43351); type: functional, biochemical
T4 sequence (P43351 whole entry): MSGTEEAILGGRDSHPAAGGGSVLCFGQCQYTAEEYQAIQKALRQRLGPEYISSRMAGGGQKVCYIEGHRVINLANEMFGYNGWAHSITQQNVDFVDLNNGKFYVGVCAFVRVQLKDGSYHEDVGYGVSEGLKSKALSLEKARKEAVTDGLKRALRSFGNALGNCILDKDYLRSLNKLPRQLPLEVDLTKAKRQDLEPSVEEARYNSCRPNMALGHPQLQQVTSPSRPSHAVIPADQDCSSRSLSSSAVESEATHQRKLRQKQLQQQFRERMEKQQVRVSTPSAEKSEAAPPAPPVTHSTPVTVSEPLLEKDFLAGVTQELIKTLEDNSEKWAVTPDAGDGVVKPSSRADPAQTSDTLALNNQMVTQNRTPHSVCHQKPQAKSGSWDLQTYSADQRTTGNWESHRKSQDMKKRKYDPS

[11] = biological target: T5, DNA repair and recombination protein RAD54-like (Homo sapiens, UniProt Q92698); assay: inhibitors of human RAD54 branch migration, confirmation, biochemical, fluorescence, cherry-picked samples, dose series (AID 651657); type: functional
T5 sequence (Q92698 whole entry): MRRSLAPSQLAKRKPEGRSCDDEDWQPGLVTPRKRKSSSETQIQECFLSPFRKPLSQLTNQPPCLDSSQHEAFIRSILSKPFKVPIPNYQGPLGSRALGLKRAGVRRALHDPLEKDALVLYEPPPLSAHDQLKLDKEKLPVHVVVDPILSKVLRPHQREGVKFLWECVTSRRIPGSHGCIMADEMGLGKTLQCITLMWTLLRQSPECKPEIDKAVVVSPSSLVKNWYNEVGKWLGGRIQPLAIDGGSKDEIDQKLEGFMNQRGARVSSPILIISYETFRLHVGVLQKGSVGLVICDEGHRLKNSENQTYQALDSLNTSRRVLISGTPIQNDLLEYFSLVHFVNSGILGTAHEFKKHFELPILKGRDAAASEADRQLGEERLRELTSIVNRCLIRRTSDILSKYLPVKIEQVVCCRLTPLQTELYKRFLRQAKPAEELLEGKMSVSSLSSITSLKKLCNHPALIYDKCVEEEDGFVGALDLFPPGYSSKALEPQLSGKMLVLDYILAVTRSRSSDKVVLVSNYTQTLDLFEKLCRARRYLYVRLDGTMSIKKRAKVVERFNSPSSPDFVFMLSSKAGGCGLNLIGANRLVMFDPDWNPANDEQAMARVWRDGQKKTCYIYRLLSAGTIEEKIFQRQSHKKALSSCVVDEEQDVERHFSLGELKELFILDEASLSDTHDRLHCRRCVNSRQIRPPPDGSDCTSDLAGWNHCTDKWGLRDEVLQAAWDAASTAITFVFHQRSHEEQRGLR

[12] = HepG2 cell cytotoxicity, dose response, cytotoxicity control for non-replicating M. tuberculosis project (AID 489018); type: functional; conditions: Mycobacterium tuberculosis
cells = type: functional
[13] = inhibitors of intracellular T. cruzi replication, confirmation, NIH3T3 host cells, beta-gal luminescence (AID 2044); type: functional, cell-based;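 further: intracellular parasites grown in NIH/3T3 mouse fibroblasts as host cells; luminescent beta-galactosidase reporter signal from transgenic T. cruzi replicating inside host cells; inhibitors lower the luminescence signal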
[14] = HeLa cell cytotoxicity, dose response, cytotoxicity control for MgcRacGAP inhibitor project (AID 624300); type: functional

COC(=O)CCCC1=CC2=CC(=O)C(C)(OC(=O)c3cccs3)C(=O)C2=CN1C1CC1 (stereo unspecified)
active: IC50 [1] 7.17 µM | IC50 [2] 17.3 µM

COC(=O)C[C@H]1CC[C@H]2[C@@H](COc3ccc(NC(=O)Nc4c(C)noc4C)cc3C(=O)N2C)O1
active: AC50 [3] 40.4 µM

C[C@H](CO)N1C[C@H](C)[C@@H](CN(C)Cc2ccc(-c3ccccc3)cc2)Oc2ncc(C#CCN(C)C)cc2C1=O
active: AC50 [3] 20.3 µM

CCCCN(CC)CCNC(=O)c1cc2c(-c3ccc(Cl)cc3)nn(C)c2s1
active: EC50 [4] 8.44 µM | CC50 [5] 12.9 µM | AC50 [6] 23.7 µM | EC50 [7] 0.211 µM | IC50 [8] 229 µM | CC50 [9] 13.7 µM | AC50 [10] 6.76 µM | AC50 [11] 21.7 µM | CC50 [12] 5.62 µM | IC50 (cells) 9.15 µM | EC50 [13] 0.809 µM | CC50 [14] 55.5 µM
